Source: patent publication US20050106635A1, “Compositions and methods for regulating thyroid hormone metabolism and cholesterol and lipid metabolism via the nuclear receptor car” (priority 2002, published 2005)

What was measured:
[1] = test system: mouse sulfotransferase genes; test: Effect of TCPOBOP on expression of the known mouse sulfotransferase genes (method not specified); type: in vivo; settings: mice, liver
Method: (§1) In these experiments, three mice were treated with 1 mg/kg TCPOBOP in 5% dimethyl sulfoxide (DMSO) and corn oil, intraperitoneally. Control mice (n—3) received vehicle alone. Each mouse received two injections at 24 hour intervals. Livers were harvested after the second injection. Thus, total treatment time was 28 hours. Total mRNA was isolated from the livers using the Trizol method and probes for hybridization to the Affymetrix chips were prepared from the total mRNA. Results were analyzed by Affymetrix microarray Suite version 4.0 software.
Since sulfotransferase activity is important in thyroid metabolism, the effect of TCPOBOP on expression of all of the known mouse sulfotransferase genes was examined. The sulfotransferase set examined included N-SULT, SULT-X1, SULT-X2, aryl sulfotransferase, phenyl sulfotransferase, hydroxysteroid sulfotransferase, SULT-B1, and SUTL1E1. Three of these eight sulfotransferase genes were induced by TCPOBOP. […] Sulfotransferase activity coupled with deiodinase type I activity caused an increased proportion of T4 to be converted to rT3 rather than T3.
The expression of several genes examined in the TCPOBOP study was also examined. Of the sulfotransferase genes, SULT-X1, N-SULT, SULT 1E1, SULT 1B1 and aryl sulfotransferase were examined.

[2] = test system: mouse liver genes differentially expressed in response to CAR activation; test: Affymetrix GeneChip analysis of mouse liver genes differentially expressed after TCPOBOP treatment; type: in vivo
Method: A global analysis of mouse liver genes differentially expressed in response to CAR activation was performed. Changes in mRNA steady state levels were assessed using AFFYMETRIX® chip technology. AFFYMETRIX® GeneChip murine genome assays (Mu11k set), representing greater than 13,000 full-length genes and EST clusters, were used. The primary sequence sources for this set were combined Unigene and TIGR databases. […] TCPOBOP is a potent and selective activator of mouse CAR and a useful chemical tool for in vivo differential gene expression studies.
as §1

[3] = test system: mouse sulfotransferase genes; test: Northern blot analysis of sulfotransferase mRNAs in liver of TCPOBOP-treated mice; type: in vivo; settings: 1 mg/kg i.p.
T4 = settings: rats; TCPOBOP at high doses; cited from earlier work
[4] = test system: genes involved in hepatic thyroid hormone conjugation and transport; test: RTQ-PCR of thyroid hormone metabolism genes in liver of TCPOBOP-treated mice; type: in vivo, mouse; settings: 1 mg/kg i.p.
[5] = mice, 1 mg/kg i.p., two injections, liver, 28 hours, Affymetrix chip data

Clc1cnc(Oc2ccc(Oc3ncc(Cl)cc3Cl)cc2)c(Cl)c1 [TCPOBOP, 1,4-bis-[2,-(3,5-dichloropyridyloxy)] benzene]
SULT-1B1 mRNA induction [1]: not induced | SULT-1E1 mRNA induction [1]: not induced | aryl sulfotransferase mRNA induction [1]: not induced | number of genes (of more than 13,000) displaying a 2-fold or greater change in expression ([2]; mice, 1 mg/kg i.p., two injections at 24 hour intervals, liver, total treatment time 28 hours): 264 genes | CYP2B10 mRNA upregulation in expression [2, 5]: 40 fold | CYP3A1 mRNA upregulation in expression [2, 5]: 20 fold | decrease in the gene encoding the Na+/K+ transporting ATPase [2, 5]: greater than 2 fold | activation of the CAR nuclear receptor ([2]; mouse liver, in vivo differential gene expression study): Selective and potent activation | N-SULT increase [3]: 11.5 fold | SULT-X1 increase [3]: 10.0 fold | circulating levels of T4 (T4): decreased circulating levels of T4 | glucuronidation of T4 (T4): increase in glucuronidation of T4 | expression of the basolateral transporter mrp3 [4]: increased the expression | GST mu1-1 increase ([4]; RTQ-PCR): 2.7 fold | GST mu5-5 increase ([4]; RTQ-PCR): 4.7 fold | GST theta 1-1 increase ([4]; RTQ-PCR): 2.7 fold | GST-Y increase ([4]; RTQ-PCR): 7.5 fold | SULT-X2 increase ([4]; RTQ-PCR): 30 fold | UDP-glucuronysyl transferase 1A1 increase ([4]; RTQ-PCR): 1.6 fold
